Assay results taken from US8653285B2 (Nippon Zoki Pharmaceutical Co., Ltd., priority 2008, dated 2014).
Where a name gives a salt, the structure may show the parent alone. Read-outs that look alike come from different tables or passages of the source.

Experiments:
[1] = system: histamine-induced vascular hyperpermeability; test: Rat histamine-induced vascular hyperpermeability reaction (in vivo antihistamine action); details: SD male rat, oral administration, histamine injected intracutaneously 1 hour after administration, leaked Evans Blue
Description: An SD male rat (SPF) of 180 g in weight was previously fed for one week or more by allowing the rat to take a solid feed and tap water ad libitum, under the environment setting of a temperature of 22° C., humidity of 55% and an artificial illumination of 12 hours a day (light phase 8 am to 8 pm), and the rat was fasted overnight to be used for the experiment. Histamine.dihydrochloride (hereinafter referred to as histamine) and Evans Blue were used by dissolving each in physiological saline upon use. A substance to be tested was dissolved in water for injection or suspended in 0.5% carboxymethyl cellulose sodium, and the rat was orally administered with the solution or suspension (dose volume: 5 mL/kg body weight). After 1 hour from the administration, the physiological saline and the histamine solution were each intracutaneously injected to two locations (20 μg/0.05 ml/location) each on a back part of the rat of which hair was sheared with an electric clipper while anesthetizing with an ether. A 0.5% Evans Blue-containing physiological saline was injected into the tail vein of the rat (1 mL/200 g body weight) immediately before the intracutaneous injection of the histamine.
After 30 minutes, the animal was decapitated, and exsanguinated, and the skin was removed to measure an amount of leaked pigment in the blue-stained portion. The measurement of the amount of leaked pigment was carried out as follows. Skins of the pigment leaking site were cut out at two locations, 1 mL of a 2 mol/L aqueous potassium hydroxide solution was added thereto in a test tube, and the test tube was allowed to stand overnight at 37° C. to dissolve. Thereafter, 6 mL of a 1:3 mixed solution of 0.67 mol/L phosphoric acid and acetone was added to the solution, and the mixture was vigorously shaken for 10 minutes. Thereafter, the mixture was filtered, and the absorbance of the filtrate at 620 nm was measured. The absorbance obtained from the two locations of the sites injected with physiological saline, as blank value, was used for a compensation. The amount of leaked pigment was calculated from the calibration curve of Evans Blue at 620 nm.

cerebral H1 receptor = target: T1, cerebral H1 receptor (Mus musculus, UniProt P70174); test: Murine cerebral H1 receptor occupying content (ex vivo, 3H-pyrilamine binding in brain homogenate after oral administration)
T1 construct: The excised brain tissue was homogenized with Polytron (Kinematica); from tissue; host or cells: ICR mouse brain (entire brain except cerebellum and medulla oblongata), homogenate
T1 sequence (P70174 whole entry): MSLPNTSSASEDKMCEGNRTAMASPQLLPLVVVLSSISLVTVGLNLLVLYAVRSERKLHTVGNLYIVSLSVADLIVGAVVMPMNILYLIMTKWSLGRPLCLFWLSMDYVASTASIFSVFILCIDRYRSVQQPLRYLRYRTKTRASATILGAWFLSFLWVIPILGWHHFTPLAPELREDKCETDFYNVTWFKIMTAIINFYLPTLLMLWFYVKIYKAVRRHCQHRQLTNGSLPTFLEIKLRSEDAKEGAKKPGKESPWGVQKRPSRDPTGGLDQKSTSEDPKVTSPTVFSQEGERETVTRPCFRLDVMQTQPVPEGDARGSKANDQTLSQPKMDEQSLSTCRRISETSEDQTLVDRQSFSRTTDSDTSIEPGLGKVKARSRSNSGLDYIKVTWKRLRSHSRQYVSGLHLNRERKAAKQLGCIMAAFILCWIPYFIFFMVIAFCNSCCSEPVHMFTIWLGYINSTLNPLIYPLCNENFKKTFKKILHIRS
Description: A 6-week-old ICR male mouse was previously fed for one week or more by allowing the mouse to take a solid feed and tap water ad libitum, under the environment setting of a temperature of 22° C., humidity of 55% and an artificial illumination of 12 hours a day, and the mouse was fasted overnight to be used for the experiment. A substance to be tested was dissolved with water for injection or suspended in 0.5% carboxymethyl cellulose solution, and the solution or suspension was orally administered to the mouse (dose volume: 0.1 mL/10 g body weight). After 1 hour from the oral administration, the mouse was decapitated, and the entire brain, except for cerebellum and medulla oblongatae, was rapidly excised. The excised brain tissue was homogenized with Polytron (Kinematica) in an ice-cooled 50 mmol/L phosphate buffered saline (pH 7.4, 100 mg/1.9 mL).
To a test tube for reaction (TPX-Tube) were added 180 μL of the brain homogenate, and 10 μL of ^3H-pyrilamine solution (final concentration: 2 nmol/L) and 10 μL of a non-labeled pyrilamine solution (final concentration: 200 μmol/L) or a 50 mmol/L phosphate buffered saline, and the mixture was incubated at room temperature for 45 minutes, and 2.0 mL of an ice-cooled, 50 mmol/L phosphate buffered saline was then added thereto to stop the reaction. The reaction mixture was filtered with a GF/B filter ([…]), and the filtrate was placed in a vial and dried overnight at 60 degrees. After drying, 10 mL of a scintillator (AL-1, toluene-based, DOJINDO LABORATORIES) was added to the product, and the disintegration per minute (dpm) was measured with a liquid scintillation counter (Packard, U.S.A., TRI-CARB 2700TR) (5 minutes/vial).

[2] = target: human histamine H1 receptor (Homo sapiens, UniProt P35367); test: In vitro human histamine H1 receptor binding experiment ([3H]pyrilamine, HEK293A cells stably expressing the receptor); details: [3H]pyrilamine 3 nmol/L, room temperature 60 minutes
Sequence of human histamine H1 receptor (P35367 whole entry): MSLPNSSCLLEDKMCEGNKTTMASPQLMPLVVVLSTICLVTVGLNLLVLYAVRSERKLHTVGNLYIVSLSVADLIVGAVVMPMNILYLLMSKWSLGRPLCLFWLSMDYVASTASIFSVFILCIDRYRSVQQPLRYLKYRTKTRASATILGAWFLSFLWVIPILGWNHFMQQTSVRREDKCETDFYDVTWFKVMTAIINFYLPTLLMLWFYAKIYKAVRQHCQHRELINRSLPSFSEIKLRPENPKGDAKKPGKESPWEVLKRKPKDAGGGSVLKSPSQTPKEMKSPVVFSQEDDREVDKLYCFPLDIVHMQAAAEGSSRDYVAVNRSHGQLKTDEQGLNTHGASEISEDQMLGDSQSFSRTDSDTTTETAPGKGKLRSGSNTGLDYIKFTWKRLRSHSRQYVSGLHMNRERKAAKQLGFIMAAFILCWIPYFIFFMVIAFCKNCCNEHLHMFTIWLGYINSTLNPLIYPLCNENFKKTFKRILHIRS
Description: Recombinant human histamine H1 receptor plasmid (prepared by Invitrogen) was transfected to HEK293A cells with Lipofectamine 2000 (Invitrogen). Cells stably expressing human histamine H1 receptor were screened with Geneticin (Invitrogen). The cells were continued to be cultured using a Dulbecco's Modified Eagle Medium containing 10% fetal bovine serum, 0.1 mmol/L MEM Non-Essential Amino Acids Solution, 2 mmol/L L-glutamine and 0.7 mg/mL Geneticin in a 5% CO2 incubator at 37° C. The cells stably expressing human histamine H1 receptor were prepared using 50 mmol/L Tris-HCl (pH 7.5) (hereinafter referred to as buffer) containing 0.1% bovine serum albumin, so as to have a concentration of 3×10^6 cells/mL, to give a cell sample preparation. Fifty microliters of the buffer, 50 μL of a test substance solution at various concentrations, and 50 μL of [^3H]pyrilamine solution (final concentration: 3 nmol/L) were added to each of the wells on the 96-well plate, and stirred, and 100 μL of the cell sample preparation was then added thereto (at a concentration of 3×10^5 cells/well) to initiate the reaction.
The cells were incubated at room temperature for 60 minutes, and then filtered on UniFilter GF/C plate (Packard) immersed in 0.5% polyethyleneimine using a cell harvester (IH-110, INNOTECH CORPORATION), to stop the reaction, and the plate was washed with the buffer. The plate after washing was sufficiently dried, and 20 μL of a scintillator (MaxiLight, manufactured by Hidex) was added thereto, and count per minute (cpm) was measured with a multi-labeled microplate reader (Plate Chameleo II, Hidex). The nonspecific binding was cpm in a case where 30 μmol/L pyrilamine was added. The experiments were carried out at n=3, and at least repeated 3 times.

[3] = ICR male mouse, oral administration, brain excised after 1 hour, larger ID50 = lower brain transfer, read-out: ID50 (the source's name)

Compound | IC50 [2] [nM] | other results
CNCC/C=C1\c2cc(C(C)(C)C(=O)O)ccc2OCc2ccsc21 [Compound 25, (E)-{2-Methyl-2-[4-(3-methylaminopropylidene)-4,10-dihydro-9-oxa-3-thiabenzo [f]azulen-6-yl]}propionic acid] | – | ED50 [1]: 5.70 mg/kg; ID50 (cerebral H1 receptor; ICR male mouse, oral administration, brain excised after 1 hour, larger ID50 = lower brain transfer): >200 mg/kg
CCOC(=O)c1ccc2c(c1)C(=CCCN(C)C)c1sccc1CO2 [Compound 3, Ethyl (E,Z)-4-(3-dimethylaminopropylidene)-4,10-dihydro-9-oxa-3-thiabenzo[f]azulene-6-carboxylate hydrochloride] | 22.2 | –
O=C(O)Cc1ccc2c(c1)/C(=C\CCN1CCN(c3ccccc3)CC1)c1sccc1CO2 [Compound 54, (E)-{4-[3-(4-Phenylpiperadin-1-yl)propylidene]-4,10-dihydro-9-oxa-3-thiabenzo[f]azulen-6-yl}acetic acid] | 10.9 | –
O=C(O)Cc1ccc2c(c1)/C(=C/CCN1CCCCC1)c1sccc1CO2 [Compound 35, (Z)-{4-[3-(Piperidin-1-yl)propylidene]-4,10-dihydro-9-oxa-3-thiabenzo[f]azulen-6-yl}acetic acid] | – | ED50 ([1]; read-out: ED50): ~0.1 mg/kg; ED50 (cerebral H1 receptor; [3]): 65.7 mg/kg
CCOC(=O)C(C)(C)c1ccc2c(c1)C(=CCCN(C)C)c1sccc1CO2 [Compound 21, Ethyl (E,Z)-2-[4-(3-dimethylaminopropylidene)-4,10-dihydro-9-oxa-3-thiabenzo[f]azulen-6-yl]-2-methylpropionate hydrochloride] | 74.7 | –
CN(C)CC/C=C1/c2ccccc2CCc2sc(C(=O)O)cc21 [Compound 16, (Z)-[4-(3-Dimethylaminopropylidene)-9,10-dihydro-4H-1-thiabenzo[f]azulen-2-yl]carboxylic acid] | – | ED50 ([1]; read-out: ED50): 0.299 mg/kg; ED50 (cerebral H1 receptor; [3]): 45.8 mg/kg
O=C(O)Cc1ccc2c(c1)/C(=C/CCNCc1ccccc1)c1sccc1CO2 [Compound 43, (Z)-[4-(3-Benzylaminopropylidene)-4,10-dihydro-9-oxa-3-thiabenzo[f]azulen-6-yl]acetic acid] | – | ED50 ([1]; read-out: ED50): 1.31 mg/kg; ED50 (cerebral H1 receptor; [3]): > 80 mg/kg
CCOC(=O)/C=C/c1ccc2c(c1)/C(=C/CCN(C)C)c1sccc1CO2 [Compound 13, Ethyl (E,Z)-3-[4-(3-dimethylaminopropylidene)-4,10-dihydro-9-oxa-3-thiabenzo[f]azulen-6-yl]acrylate hydrochloride] | 32.4 | –
CN1CCC(=C2c3ccccc3CC(=O)c3sccc32)CC1 [Ketotifen, reference compound] | – | ED50 ([1]; read-out: ED50): 0.54 mg/kg
CN(C)CCC=C1c2ccccc2CCc2sc(C(C)(C)C(=O)O)cc21 [Compound 23, (E,Z)-2-[4-(3-Dimethylaminopropylidene)-9,10-dihydro-4H-1-thiabenzo[f]azulen-2-yl]-2-methylpropionic acid] | 74.6 | –
CN(C)CC/C=C1/c2ccccc2CCc2sc(CC(=O)O)cc21.Cl [Compound 18, (Z)-[4-(3-Dimethylaminopropylidene)-9,10-dihydro-4H-1-thiabenzo[f]azulen-2-yl]acetic acid hydrochloride] | – | ED50 ([1]; read-out: ED50): 0.063 mg/kg; ED50 (cerebral H1 receptor; mouse, po, 1 h, read-out: ID50): 2.1 mg/kg
CN(C)CC/C=C1/c2cc(CC(=O)O)ccc2OCc2ccsc21 [Compound 20, (Z)-[4-(3-Dimethylaminopropylidene)-4,10-dihydro-9-oxa-3-thiabenzo[f]azulen-6-yl]acetic acid] | – | ED50 ([1]; read-out: ED50): 0.45 mg/kg; ED50 (cerebral H1 receptor; [3]): 109 mg/kg
O=C(O)Cc1ccc2c(c1)/C(=C\CCNCc1ccccc1)c1sccc1CO2 [Compound 42, (E)-[4-(3-Benzylaminopropylidene)-4,10-dihydro-9-oxa-3-thiabenzo[f]azulen-6-yl]acetic acid] | 99.8 | –
CN(C)CCC=C1c2ccccc2CCc2sc(C(=O)NCCO)cc21 [Compound 9, (E,Z)-4-(3-Dimethylaminopropylidene)-9,10-dihydro-4H-1-thiabenzo[f]azulene-2-carboxylic-(2-hydroxyethyl)amide hydrochloride] | 55.7 | –
O=C(O)Cc1ccc2c(c1)/C(=C/CCN1CCN(c3ccccc3)CC1)c1sccc1CO2 [Compound 55, (Z)-{4-[3-(4-Phenylpiperadin-1-yl)propylidene]-4,10-dihydro-9-oxa-3-thiabenzo[f]azulen-6-yl}acetic acid] | 19.6 | –
CN(CC/C=C1\c2cc(CC(=O)O)ccc2OCc2ccsc21)Cc1ccccc1 [Compound 40] | 19.1 | –

Further lines, with some results ahead:

IC50 [2] [nM] | Compound | other results
29 | CN(C)CC/C=C1\c2cc(CCC(=O)O)ccc2OCc2sccc21 [Compound 56, (E)-3-[4-(3-Dimethylaminopropylidene)-4,10-dihydro-9-oxa-1-thiabenzo[f]azulen-6-yl]propionic acid hydrochloride] | –
60.5 | O=C(O)Cc1ccc2c(c1)/C(=C\CCN1CCC(=O)CC1)c1sccc1CO2 [Compound 62, (E)-{4-[3-(4-Oxopiperidin-1-yl)propylidene]-4,10-dihydro-9-oxa-3-thiabenzo[f]azulen-6-yl}acetic acid] | –
14 | CN(C)CC/C=C1/c2cc(CC(=O)O)ccc2CCc2ccsc21 [Compound 65, (Z)-[4-(3-Dimethylaminopropylidene)-9,10-dihydro-4H-3-thiabenzo[f]azulen-6-yl]acetic acid hydrochloride] | –
53.8 | CC(C)(C(=O)O)c1cc2c(s1)CCc1ccccc1/C2=C\CCN1CCCC1 [Compound 69, (E,Z)-2-Methyl-2-{4-[3-(pyrrolidin-1-yl)propylidene]-9,10-dihydro-4H-1-thiabenzo[f]azulen-2-yl}propionic acid] | –
45.2 | O=C(O)Cc1ccc2c(c1)C(=CCCN1CCSCC1)c1sccc1CO2 [Compound 68, (E,Z)-{4-[3-(Thiomorpholin-4-yl)propylidene]-4,10-dihydro-9-oxa-3-thiabenzo[f]azulen-6-yl}acetic acid] | –
8.56 | CN(C)CC/C=C1\c2cc(CC(=O)O)ccc2CCc2ccsc21 [Compound 64, (E)-[4-(3-Dimethylaminopropylidene)-9,10-dihydro-4H-3-thiabenzo[f]azulen-6-yl]acetic acid] | –
31.2 | O=C(O)Cc1ccc2c(c1)/C(=C\CCN1CCC(N3CCCCC3)CC1)c1sccc1CO2 [Compound 66, (E)-{4-[3-([1,4′]Bipiperidin-1′-yl)propylidene]-4,10-dihydro-9-oxa-3-thiabenzo[f]azulen-6-yl}acetic acid diformate] | –
